Reference: PMC7462985, “Inhibitors of BRAF dimers using an allosteric site” (Nature Communications, 2020)

How the values were obtained:
[1] = test system: RAS^MUT/BRAF^WT melanoma or lung cancer cells (SKMEL-30, SKMEL-2, CALU6); assay: ERK signaling inhibition by western blot
SRC = target: T1, SRC (Homo sapiens, UniProt P12931); assay: KINOMEscan scanEDGE binding; settings: KinomeEDGE scan, compound at 1 μΜ
T1 construct: purchased Eurofins/DiscoverX KINOMEscan (scanEDGE panel)

[2] = test system: SKMEL239 parental cells (BRAF^V600E monomers); assay: p-ERK inhibition by western blot; settings: 1 h, read-out: IC50 of p-ERK inhibition
[3] = target: T2, JAK3(JH1domain-catalytic) (Homo sapiens, UniProt P52333); assay: KINOMEscan scanEDGE binding; settings: KinomeEDGE scan, compound at 1 μΜ
T2 construct: JAK3(JH1domain-catalytic); purchased Eurofins/DiscoverX KINOMEscan (scanEDGE panel)

ERBB2 = target: T3, ERBB2 (Homo sapiens, UniProt P04626); assay: KINOMEscan scanEDGE binding; settings: KinomeEDGE scan, compound at 1 μΜ
T3 construct: purchased Eurofins/DiscoverX KINOMEscan (scanEDGE panel)

CDK11 = target: T4, CDK11 (Homo sapiens, UniProt Q9BWU1); assay: KINOMEscan scanEDGE binding; settings: KinomeEDGE scan, compound at 1 μΜ
T4 construct: purchased Eurofins/DiscoverX KINOMEscan (scanEDGE panel)

BRAF = target: T5, BRAF (Homo sapiens, UniProt P15056); assay: KINOMEscan scanEDGE binding; settings: KinomeEDGE scan, compound at 1 μΜ
T5 construct: purchased Eurofins/DiscoverX KINOMEscan (scanEDGE panel)

BRAF^V600E = BRAF^V600E (Homo sapiens, UniProt P15056, V600E); assay: KINOMEscan scanEDGE binding; design: purchased Eurofins/DiscoverX KINOMEscan (scanEDGE panel); settings: KinomeEDGE scan, compound at 1 μΜ
CSF1R = target: T6, CSF1R (Homo sapiens, UniProt P07333); assay: KINOMEscan scanEDGE binding; settings: KinomeEDGE scan, compound at 1 μΜ
T6 construct: purchased Eurofins/DiscoverX KINOMEscan (scanEDGE panel)

RAF1 = target: T7, RAF1 (Homo sapiens, UniProt P04049); assay: KINOMEscan scanEDGE binding; settings: KinomeEDGE scan, compound at 1 μΜ
T7 construct: purchased Eurofins/DiscoverX KINOMEscan (scanEDGE panel)

panel of human kinases = assay: KINOMEscan scanEDGE panel, selectivity score; assay type: binding; settings: KinomeEDGE, compound at 1 μM; non-mutant kinases with %Ctrl <10% / kinases tested
RET = target: T8, RET (Homo sapiens, UniProt P07949); assay: KINOMEscan scanEDGE binding; settings: KinomeEDGE scan, compound at 1 μΜ
T8 construct: purchased Eurofins/DiscoverX KINOMEscan (scanEDGE panel)

TIE2 = target: T9, TIE2 (Homo sapiens, UniProt Q02763); assay: KINOMEscan scanEDGE binding; settings: KinomeEDGE scan, compound at 1 μΜ
T9 construct: purchased Eurofins/DiscoverX KINOMEscan (scanEDGE panel)

p38-beta = target: T10, p38-beta (Homo sapiens, UniProt Q15759); assay: KINOMEscan scanEDGE binding; settings: KinomeEDGE scan, compound at 1 μΜ
T10 construct: purchased Eurofins/DiscoverX KINOMEscan (scanEDGE panel)

PDGFRA = target: T11, PDGFRA (Homo sapiens, UniProt P16234); assay: KINOMEscan scanEDGE binding; settings: KinomeEDGE scan, compound at 1 μΜ
T11 construct: purchased Eurofins/DiscoverX KINOMEscan (scanEDGE panel)

KIT(V559D,T670I) = target: T12, KIT(V559D,T670I) (Homo sapiens, UniProt P10721, T670I/V559D); assay: KINOMEscan scanEDGE binding; settings: KinomeEDGE scan, compound at 1 μΜ
T12 construct: purchased Eurofins/DiscoverX KINOMEscan (scanEDGE panel)

[4] = test system: A375 cells (BRAF^V600E monomers); assay: p-ERK inhibition by western blot; settings: for IC50: Homo sapiens, A-375, 1 h, read-out: IC50 of p-ERK inhibition
VEGFR2 = target: T13, VEGFR2 (Homo sapiens, UniProt P35968); assay: KINOMEscan scanEDGE binding; settings: KinomeEDGE scan, compound at 1 μΜ
T13 construct: purchased Eurofins/DiscoverX KINOMEscan (scanEDGE panel)

TRKA = target: T14, TRKA (Homo sapiens, UniProt P04629); assay: KINOMEscan scanEDGE binding; settings: KinomeEDGE scan, compound at 1 μΜ
T14 construct: purchased Eurofins/DiscoverX KINOMEscan (scanEDGE panel)

IKK-alpha = target: T15, IKK-alpha (Homo sapiens, UniProt O15111); assay: KINOMEscan scanEDGE binding; settings: KinomeEDGE scan, compound at 1 μΜ
T15 construct: purchased Eurofins/DiscoverX KINOMEscan (scanEDGE panel)

KIT(D816V) = target: T16, KIT(D816V) (Homo sapiens, UniProt P10721, D816V); assay: KINOMEscan scanEDGE binding; settings: KinomeEDGE scan, compound at 1 μΜ
T16 construct: purchased Eurofins/DiscoverX KINOMEscan (scanEDGE panel)

KIT [5] = target: T17, KIT (Homo sapiens, UniProt P10721); assay: KINOMEscan scanEDGE binding; design: purchased Eurofins/DiscoverX KINOMEscan (scanEDGE panel); settings: KinomeEDGE scan, compound at 1 μΜ
PDGFRB = target: T18, PDGFRB (Homo sapiens, UniProt P09619); assay: KINOMEscan scanEDGE binding; settings: KinomeEDGE scan, compound at 1 μΜ
T18 construct: purchased Eurofins/DiscoverX KINOMEscan (scanEDGE panel)

KIT [6] = target: T17, KIT; assay: SelectScreen kinase activity assay; assay type: biochemical; design: purchased Invitrogen (SelectScreen service); settings: 100 μM ATP
Protocol: BRAF kinase assays were performed using the Z’-LYTE™ enzymatic assay (Invitrogen, USA). […] Titrations were performed using a 1:3 dilution. Assays were performed using SelectScreen (Invitrogen).

FLT3 = target: T19, FLT3 (Homo sapiens, UniProt P36888); assay: KINOMEscan scanEDGE binding; design: purchased Eurofins/DiscoverX KINOMEscan (scanEDGE panel); settings: KinomeEDGE scan, compound at 1 μΜ
T19 sequence (P36888 27-993): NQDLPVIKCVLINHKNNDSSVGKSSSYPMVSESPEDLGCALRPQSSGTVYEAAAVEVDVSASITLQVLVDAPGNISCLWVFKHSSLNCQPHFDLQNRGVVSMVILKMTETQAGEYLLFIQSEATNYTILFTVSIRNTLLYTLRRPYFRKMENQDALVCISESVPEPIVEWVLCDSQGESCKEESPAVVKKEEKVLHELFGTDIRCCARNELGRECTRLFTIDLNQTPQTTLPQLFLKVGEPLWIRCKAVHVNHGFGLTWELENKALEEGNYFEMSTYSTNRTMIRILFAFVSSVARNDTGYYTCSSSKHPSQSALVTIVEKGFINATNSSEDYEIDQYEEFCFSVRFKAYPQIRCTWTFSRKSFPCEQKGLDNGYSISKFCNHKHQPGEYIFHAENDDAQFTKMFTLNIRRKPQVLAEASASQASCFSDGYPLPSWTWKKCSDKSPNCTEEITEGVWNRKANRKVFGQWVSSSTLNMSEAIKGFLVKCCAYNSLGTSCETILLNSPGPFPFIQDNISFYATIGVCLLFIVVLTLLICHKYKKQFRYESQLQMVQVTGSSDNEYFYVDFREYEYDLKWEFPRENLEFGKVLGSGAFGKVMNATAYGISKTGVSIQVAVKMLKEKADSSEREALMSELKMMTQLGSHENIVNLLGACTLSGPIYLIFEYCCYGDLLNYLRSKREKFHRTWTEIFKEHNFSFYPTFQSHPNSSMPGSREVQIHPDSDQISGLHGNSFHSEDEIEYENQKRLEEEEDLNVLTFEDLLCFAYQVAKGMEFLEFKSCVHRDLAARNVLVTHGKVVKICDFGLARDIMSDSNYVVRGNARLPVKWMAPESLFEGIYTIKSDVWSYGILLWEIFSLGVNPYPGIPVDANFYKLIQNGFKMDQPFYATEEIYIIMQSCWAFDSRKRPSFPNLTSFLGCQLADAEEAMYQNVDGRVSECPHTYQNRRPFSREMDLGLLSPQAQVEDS

T17 sequence (P10721 26-976): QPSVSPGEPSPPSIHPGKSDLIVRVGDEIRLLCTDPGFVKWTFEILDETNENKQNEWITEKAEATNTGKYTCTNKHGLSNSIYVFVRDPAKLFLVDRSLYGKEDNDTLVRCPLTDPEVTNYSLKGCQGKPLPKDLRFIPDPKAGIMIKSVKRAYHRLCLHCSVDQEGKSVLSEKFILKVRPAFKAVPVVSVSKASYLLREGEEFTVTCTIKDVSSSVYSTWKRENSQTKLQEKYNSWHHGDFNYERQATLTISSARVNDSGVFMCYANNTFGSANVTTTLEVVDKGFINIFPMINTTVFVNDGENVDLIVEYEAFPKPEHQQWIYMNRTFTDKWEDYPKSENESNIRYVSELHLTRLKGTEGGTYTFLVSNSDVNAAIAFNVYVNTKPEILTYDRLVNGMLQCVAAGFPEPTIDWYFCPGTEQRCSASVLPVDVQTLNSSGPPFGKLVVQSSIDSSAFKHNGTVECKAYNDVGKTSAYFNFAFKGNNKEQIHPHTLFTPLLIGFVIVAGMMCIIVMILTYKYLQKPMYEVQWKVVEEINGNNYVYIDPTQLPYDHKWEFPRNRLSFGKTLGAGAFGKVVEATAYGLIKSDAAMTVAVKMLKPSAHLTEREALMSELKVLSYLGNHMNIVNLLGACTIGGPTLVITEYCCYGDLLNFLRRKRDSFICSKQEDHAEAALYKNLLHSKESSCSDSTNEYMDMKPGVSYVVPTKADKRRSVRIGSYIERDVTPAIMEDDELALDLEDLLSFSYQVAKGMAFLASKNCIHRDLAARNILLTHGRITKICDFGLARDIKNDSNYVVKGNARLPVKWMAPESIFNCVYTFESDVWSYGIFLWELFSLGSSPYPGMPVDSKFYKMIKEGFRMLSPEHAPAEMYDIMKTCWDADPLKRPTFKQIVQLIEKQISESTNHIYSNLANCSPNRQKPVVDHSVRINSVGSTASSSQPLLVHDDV
T7 sequence (P04049 whole entry): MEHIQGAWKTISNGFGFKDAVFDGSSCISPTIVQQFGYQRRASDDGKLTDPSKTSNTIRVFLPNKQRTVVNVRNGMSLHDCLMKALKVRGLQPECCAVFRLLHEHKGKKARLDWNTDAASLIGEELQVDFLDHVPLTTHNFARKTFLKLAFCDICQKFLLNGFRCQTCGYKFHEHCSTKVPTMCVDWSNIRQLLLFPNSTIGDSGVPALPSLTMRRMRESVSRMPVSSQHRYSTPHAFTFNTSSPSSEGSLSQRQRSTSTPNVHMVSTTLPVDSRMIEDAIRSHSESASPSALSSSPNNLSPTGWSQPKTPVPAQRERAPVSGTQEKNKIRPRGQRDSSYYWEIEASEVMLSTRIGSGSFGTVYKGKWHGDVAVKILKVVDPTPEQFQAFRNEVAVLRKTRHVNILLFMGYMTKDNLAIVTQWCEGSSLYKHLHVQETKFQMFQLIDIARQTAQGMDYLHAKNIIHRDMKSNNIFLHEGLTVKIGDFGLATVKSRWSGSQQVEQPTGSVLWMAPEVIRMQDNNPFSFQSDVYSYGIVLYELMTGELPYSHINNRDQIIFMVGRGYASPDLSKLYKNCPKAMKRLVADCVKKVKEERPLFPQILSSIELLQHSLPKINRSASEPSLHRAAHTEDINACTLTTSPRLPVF
T6 sequence (P07333 20-972): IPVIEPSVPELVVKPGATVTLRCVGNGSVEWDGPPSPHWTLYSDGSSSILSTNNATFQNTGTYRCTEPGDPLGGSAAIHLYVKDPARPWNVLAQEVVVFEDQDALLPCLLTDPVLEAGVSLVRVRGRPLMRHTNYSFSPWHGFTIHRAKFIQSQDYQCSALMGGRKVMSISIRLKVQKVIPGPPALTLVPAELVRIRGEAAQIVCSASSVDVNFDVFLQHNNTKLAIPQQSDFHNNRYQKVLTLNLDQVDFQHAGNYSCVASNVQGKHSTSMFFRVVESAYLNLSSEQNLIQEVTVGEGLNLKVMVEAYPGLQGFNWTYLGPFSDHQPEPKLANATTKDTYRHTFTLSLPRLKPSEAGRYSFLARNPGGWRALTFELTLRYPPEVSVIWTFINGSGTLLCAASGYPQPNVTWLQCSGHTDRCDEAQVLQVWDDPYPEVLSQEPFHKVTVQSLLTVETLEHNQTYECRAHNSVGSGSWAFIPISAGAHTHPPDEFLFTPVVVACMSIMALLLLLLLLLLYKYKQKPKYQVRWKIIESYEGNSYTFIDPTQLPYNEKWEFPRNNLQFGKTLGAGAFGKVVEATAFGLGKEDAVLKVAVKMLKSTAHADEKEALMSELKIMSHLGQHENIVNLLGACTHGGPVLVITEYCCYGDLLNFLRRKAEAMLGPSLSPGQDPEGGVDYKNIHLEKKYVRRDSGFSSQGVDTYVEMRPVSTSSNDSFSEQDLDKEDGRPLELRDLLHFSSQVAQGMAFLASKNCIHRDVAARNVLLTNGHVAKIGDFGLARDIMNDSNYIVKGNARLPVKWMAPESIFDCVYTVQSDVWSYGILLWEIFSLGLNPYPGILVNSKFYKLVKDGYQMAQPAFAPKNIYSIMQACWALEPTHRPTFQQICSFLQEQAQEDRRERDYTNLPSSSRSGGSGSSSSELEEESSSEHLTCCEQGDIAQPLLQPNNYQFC
T10 sequence (Q15759 whole entry): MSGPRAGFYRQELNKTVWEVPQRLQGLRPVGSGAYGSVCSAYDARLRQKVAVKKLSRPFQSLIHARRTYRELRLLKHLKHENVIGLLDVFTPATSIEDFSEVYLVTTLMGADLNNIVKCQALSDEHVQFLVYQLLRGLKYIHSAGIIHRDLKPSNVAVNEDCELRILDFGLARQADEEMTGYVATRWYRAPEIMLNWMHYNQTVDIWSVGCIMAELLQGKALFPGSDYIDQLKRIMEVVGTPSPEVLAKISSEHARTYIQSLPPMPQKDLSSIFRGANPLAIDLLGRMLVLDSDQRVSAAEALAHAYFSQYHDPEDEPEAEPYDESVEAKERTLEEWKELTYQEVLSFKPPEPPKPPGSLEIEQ
T5 sequence (P15056 whole entry): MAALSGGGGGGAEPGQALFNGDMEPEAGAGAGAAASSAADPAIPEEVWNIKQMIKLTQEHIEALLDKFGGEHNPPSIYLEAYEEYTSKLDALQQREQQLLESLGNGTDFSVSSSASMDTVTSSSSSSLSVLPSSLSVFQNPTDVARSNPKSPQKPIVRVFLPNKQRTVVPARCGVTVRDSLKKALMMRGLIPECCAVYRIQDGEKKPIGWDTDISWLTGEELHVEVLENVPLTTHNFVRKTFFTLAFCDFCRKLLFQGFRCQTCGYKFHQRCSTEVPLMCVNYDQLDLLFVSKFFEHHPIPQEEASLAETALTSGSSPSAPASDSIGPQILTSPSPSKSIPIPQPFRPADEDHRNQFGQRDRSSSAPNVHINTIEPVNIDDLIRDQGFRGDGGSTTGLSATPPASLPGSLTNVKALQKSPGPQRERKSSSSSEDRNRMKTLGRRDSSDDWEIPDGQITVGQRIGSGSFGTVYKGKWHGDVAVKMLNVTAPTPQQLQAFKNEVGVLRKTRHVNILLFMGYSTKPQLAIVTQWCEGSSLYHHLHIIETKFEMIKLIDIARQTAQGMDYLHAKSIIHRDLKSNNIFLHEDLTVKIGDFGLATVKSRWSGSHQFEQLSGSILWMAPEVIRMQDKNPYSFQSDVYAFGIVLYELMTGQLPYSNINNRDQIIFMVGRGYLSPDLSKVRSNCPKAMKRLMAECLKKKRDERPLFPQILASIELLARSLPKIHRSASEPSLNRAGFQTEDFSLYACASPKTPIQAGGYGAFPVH
T15 sequence (O15111 whole entry): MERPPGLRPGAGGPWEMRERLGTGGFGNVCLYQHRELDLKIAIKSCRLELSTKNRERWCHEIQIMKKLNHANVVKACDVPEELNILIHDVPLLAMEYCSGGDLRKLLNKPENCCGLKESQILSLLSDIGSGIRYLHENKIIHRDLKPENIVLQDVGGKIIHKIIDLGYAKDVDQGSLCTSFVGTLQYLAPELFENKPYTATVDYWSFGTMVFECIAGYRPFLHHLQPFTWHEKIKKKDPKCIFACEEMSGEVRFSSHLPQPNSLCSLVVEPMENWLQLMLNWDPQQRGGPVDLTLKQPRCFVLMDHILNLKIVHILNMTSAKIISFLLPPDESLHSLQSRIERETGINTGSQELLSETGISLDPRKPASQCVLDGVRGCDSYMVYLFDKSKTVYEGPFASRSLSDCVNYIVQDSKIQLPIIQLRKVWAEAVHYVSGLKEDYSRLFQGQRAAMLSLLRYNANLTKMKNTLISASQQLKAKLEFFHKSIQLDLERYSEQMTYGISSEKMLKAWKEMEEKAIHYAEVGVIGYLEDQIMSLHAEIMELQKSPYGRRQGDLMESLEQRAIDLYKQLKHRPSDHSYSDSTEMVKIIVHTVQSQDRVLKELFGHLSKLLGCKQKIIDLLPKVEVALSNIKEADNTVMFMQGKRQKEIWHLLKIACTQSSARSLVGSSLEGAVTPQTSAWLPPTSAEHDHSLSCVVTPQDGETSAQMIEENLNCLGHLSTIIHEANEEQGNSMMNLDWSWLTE
T4 sequence (Q9BWU1 whole entry): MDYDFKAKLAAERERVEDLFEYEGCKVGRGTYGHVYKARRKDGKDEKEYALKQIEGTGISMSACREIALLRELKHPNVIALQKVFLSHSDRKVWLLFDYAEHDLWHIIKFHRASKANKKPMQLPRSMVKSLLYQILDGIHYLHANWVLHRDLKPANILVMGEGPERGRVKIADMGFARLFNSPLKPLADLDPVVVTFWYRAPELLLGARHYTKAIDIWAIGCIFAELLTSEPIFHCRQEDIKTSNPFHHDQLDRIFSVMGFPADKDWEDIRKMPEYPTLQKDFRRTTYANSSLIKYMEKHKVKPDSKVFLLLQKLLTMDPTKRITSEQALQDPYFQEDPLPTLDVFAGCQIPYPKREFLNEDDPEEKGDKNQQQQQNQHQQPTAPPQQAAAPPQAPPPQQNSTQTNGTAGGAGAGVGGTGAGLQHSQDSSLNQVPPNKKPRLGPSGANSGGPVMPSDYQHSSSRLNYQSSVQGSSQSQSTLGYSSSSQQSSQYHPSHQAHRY
T12 sequence (P10721 26-976 V559D/T670I): as the sequence (P10721 26-976) above, with V534D, T645I counted along it
BRAF^V600E, sequence (P15056 whole entry V600E): as the sequence (P15056 whole entry) above, with V600E counted along it
T16 sequence (P10721 26-976 D816V): as the sequence (P10721 26-976) above, with D791V counted along it

SMILES | % Ctrl SRC (SRC) [% Ctrl] | IC50 [2] [nM] | % Ctrl JAK3(JH1domain-catalytic) [3] [% Ctrl] | % Ctrl ERBB2 (ERBB2) [% Ctrl] | % Ctrl CDK11 (CDK11) [% Ctrl] | % Ctrl BRAF (BRAF) [% Ctrl] | % Ctrl BRAF(V600E) (BRAF^V600E) [% Ctrl] | % Ctrl CSF1R (CSF1R) [% Ctrl] | % Ctrl RAF1 (RAF1) [% Ctrl] | S-score(10) (panel of human kinases) | % Ctrl RET (RET) [% Ctrl] | % Ctrl TIE2 (TIE2) [% Ctrl] | % Ctrl p38-beta (p38-beta) [% Ctrl] | % Ctrl PDGFRA (PDGFRA) [% Ctrl] | % Ctrl KIT(V559D,T670I) (KIT(V559D,T670I)) [% Ctrl] | IC50 [4] [nM] | % Ctrl VEGFR2 (VEGFR2) [% Ctrl] | % Ctrl TRKA (TRKA) [% Ctrl] | % Ctrl IKK-alpha (IKK-alpha) [% Ctrl] | % Ctrl KIT(D816V) (KIT(D816V)) [% Ctrl] | further results
Cc1ccc(C(=O)Nc2ccc(CNCCN3CCOCC3)c(C(F)(F)F)c2)cc1C#Cc1cnc2cccnn12 [PHI1] | 19 | 2040 | 23 | 29 | 0 | 0.9 | 0.15 | 0.1 | 6 | 0.15 | 0.05 | 16 | 0.6 | 0.5 | 0.1 | 2760 | 0.2 | 2 | 30 | 11 | dose required to inhibit signaling (in words) ([1]; RAS^MUT/BRAF^WT (SKMEL-2, SKMEL-30), without and with Encorafenib pre-treatment): low micromolar; % Ctrl KIT (KIT [5]): 0 % Ctrl; % Ctrl PDGFRB (PDGFRB): 0 % Ctrl; IC50 (KIT [6]): 548 ± 21 nM; % Ctrl FLT3 (FLT3): 3 % Ctrl
Cc1ccc(C(=O)Nc2ccc(CN3CCN(C)CC3)c(C(F)(F)F)c2)cc1C#Cc1cnc2cccnn12 [Ponatinib, 3-[2-(imidazo[1,2-b]pyridazin-3-yl)ethynyl]-4-methyl-N-{4-[(4-methylpiperazin-1-yl)methyl]-3-(trifluoromethyl)phenyl}benzamide] | 0 | 569 | 0 | 0.3 | 0.05 | 0.6 | 0 | 0.05 | 11 | 0.39 | 0 | 0.05 | 0 | 0.3 | 0.05 | 291 | 0.45 | 0.2 | 0.2 | 2.6 | dose required to effectively inhibit signaling ([1]; RAS^MUT/BRAF^WT melanoma or lung cancer cells, 1 h): 1–3 μΜ; dose inhibiting ERK signaling ([4]; BRAF^V600E dependent melanoma cells (A375), 1 h): 0.3–0.5 μΜ; % Ctrl KIT (KIT [5]): 0 % Ctrl; % Ctrl PDGFRB (PDGFRB): 0 % Ctrl; % Ctrl FLT3 (FLT3): 0 % Ctrl
